What is called IC50 is the concentration at which inhibition is half-maximal.

This is an account of results in patent US9073926B2, “Heterocyclic compounds containing a pyrrolopyridine or benzimidazole core” (Boehringer Ingelheim International GmbH, priority 2009, dated 2015).

Sequence of Human RSK2 (P51812 whole entry): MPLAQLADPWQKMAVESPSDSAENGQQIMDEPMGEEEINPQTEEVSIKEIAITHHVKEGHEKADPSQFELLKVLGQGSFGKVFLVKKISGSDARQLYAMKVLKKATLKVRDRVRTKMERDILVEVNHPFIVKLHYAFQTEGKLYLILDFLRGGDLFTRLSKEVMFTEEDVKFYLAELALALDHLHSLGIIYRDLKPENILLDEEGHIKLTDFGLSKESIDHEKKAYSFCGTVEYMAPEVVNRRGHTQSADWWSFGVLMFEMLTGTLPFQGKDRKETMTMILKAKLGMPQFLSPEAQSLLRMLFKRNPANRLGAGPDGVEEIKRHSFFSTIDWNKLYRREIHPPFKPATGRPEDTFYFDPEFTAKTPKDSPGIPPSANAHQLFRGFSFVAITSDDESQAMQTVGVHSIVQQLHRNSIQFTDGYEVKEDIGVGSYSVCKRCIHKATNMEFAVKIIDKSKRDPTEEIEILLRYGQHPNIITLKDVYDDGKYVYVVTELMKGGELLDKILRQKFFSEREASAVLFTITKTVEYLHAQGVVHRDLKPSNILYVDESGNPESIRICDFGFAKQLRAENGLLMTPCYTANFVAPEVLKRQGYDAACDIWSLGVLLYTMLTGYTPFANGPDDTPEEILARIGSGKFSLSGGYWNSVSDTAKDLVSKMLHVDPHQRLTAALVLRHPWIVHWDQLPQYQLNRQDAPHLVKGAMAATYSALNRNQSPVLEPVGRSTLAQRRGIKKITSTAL

The assay has as its target Human RSK2 (Homo sapiens (Human), UniProt P51812). Nature of the assay: Human RSK2 Assay (Kinase Glo Plus, residual ATP). The class given is biochemical. The conditions noted are these: 0.75 nM His-RSK2, 0.75 μM ATP, 1.0 μM S6 Kinase/RSK Substrate Peptide 1. Put shortly: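 His-RSK2 (0.75 nM) with 0.75 μM ATP and 1.0 μM S6 kinase/RSK substrate peptide in HEPES pH 7.5 buffer with Mg/Mn, 90 min at 28° C. Residual ATP read by Kinase Glo Plus luminescence; percent of control fitted to a 4-parameter logistic, IC50 taken as inflection point.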
For orientation: In Kinase-Glo more light means more ATP remaining.
Take `CCn1c(NC(=O)c2ccc3nc4n(c3c2)CCCNC4=O)nc2ccccc21` [Example 3, N-(1-ethyl-1H-benzimidazol-2-yl)-1-oxo-2,3,4,5-tetrahydro-1H-[1,4]diazepino[1,2-a]benzimidazole-8-carboxamide]: the IC50 is 5.5 nM. The same measure for `O=C(Nc1nc2cc(Cl)ccc2[nH]1)c1ccc2cc3n(c2n1)CCCNC3=O` [Example 67, N-(5-chloro-1H-benzimidazol-2-yl)-6-oxo-7,8,9,10-tetrahydro-6H-pyrido[3′,2′:4,5]pyrrolo[1,2-a][1,4]diazepine-2-carboxamide]: 6.1 nM; for `CCn1c(NC(=O)c2ccc3cc4n(c3n2)CCCNC4=O)nc2ccccc21` [Example 55, N-(1-ethyl-1H-benzimidazol-2-yl)-6-oxo-7,8,9,10-tetrahydro-6H-pyrido[3′,2′:4,5]pyrrolo[1,2-a][1,4]diazepine-2-carboxamide]: 140 nM. For the molecule `NC(=O)c1ccccc1NC(=O)c1ccc2nc3n(c2c1)CCCNC3=O` [Example 9, N-(2-carbamoylphenyl)-1-oxo-2,3,4,5-tetrahydro-1H-[1,4]diazepino[1,2-a]benzimidazole-8-carboxamide], the IC50 was found to be 295 nM.

Turning to `Cn1cc(NC(=O)c2ccc3nc4n(c3c2)CCCNC4=O)cn1` [Example 13, N-(1-methyl-1H-pyrazol-4-yl)-1-oxo-2,3,4,5-tetrahydro-1H-[1,4]diazepino[1,2-a]benzimidazole-8-carboxamide], the IC50 turned out to be 320 nM. The same measure for `C[C@@H]1NC(=O)c2cc3ccc(C(=O)Nc4cc(Cc5ccccc5)on4)nc3n2[C@H]1C` (relative stereo) [Example 100, N-(5-benzyl-1,2-oxazol-3-yl)-trans-8,9-dimethyl-6-oxo-6,7,8,9-tetrahydropyrido[3′,2′:4,5]pyrrolo[1,2-a]pyrazine-2-carboxamide]: 57 nM. Consider `O=C(Nc1cc(-c2ccccc2)no1)c1ccc2nc3n(c2c1)CCCNC3=O` [Example 19, 1-oxo-N-(3-phenyl-1,2-oxazol-5-yl)-2,3,4,5-tetrahydro-1H-[1,4]diazepino[1,2-a]benzimidazole-8-carboxamide], for which the IC50 worked out at 290 nM. As for `CN(C)CCCn1c(NC(=O)c2ccc3cc4n(c3n2)CCCNC4=O)nc2ccccc21` [Example 57, N-{1-[3-(dimethylamino)propyl]-1H-benzimidazol-2-yl}-6-oxo-7,8,9,10-tetrahydro-6H-pyrido[3′,2′:4,5]pyrrolo[1,2-a][1,4]diazepine-2-carboxamide], the IC50 was 245 nM. The same measure for `CC1CCNC(=O)c2cc3ccc(C(=O)Nc4cnn(Cc5ccncc5)c4)nc3n21` (stereo not shown) [Example 68, 10-methyl-6-oxo-N-[1-(pyridin-4-ylmethyl)-1H-pyrazol-4-yl]-7,8,9,10-tetrahydro-6H-pyrido[3′,2′:4,5]pyrrolo[1,2-a][1,4]diazepine-2-carboxamide]: 0.27 nM; for `CCOC(=O)c1nc(NC(=O)c2ccc3cc4n(c3n2)CCCNC4=O)cn1C` [Example 28, ethyl 1-methyl-4-{[(6-oxo-7,8,9,10-tetrahydro-6H-pyrido[3′,2′:4,5]pyrrolo[1,2-a][1,4]diazepin-2-yl)carbonyl]amino}-1H-imidazole-2-carboxylate]: 90 nM. For `O=C(Nc1cccnc1)c1ccc2nc3n(c2c1)CCCNC3=O` [Example 1, 1-oxo-N-(pyridin-3-yl)-2,3,4,5-tetrahydro-1H-[1,4]diazepino[1,2-a]benzimidazole-8-carboxamide], the IC50 came out at 5600 nM.

For the molecule `Cc1cc(NC(=O)c2ccc3cc4n(c3n2)CCCNC4=O)no1` [Example 80, N-(5-methyl-1,2-oxazol-3-yl)-6-oxo-7,8,9,10-tetrahydro-6H-pyrido[3′,2′:4,5]pyrrolo[1,2-a][1,4]diazepine-2-carboxamide], the IC50 worked out at 19 nM. The value for `O=C(Nc1nc2cc(Cl)cc(CN3CCOCC3)c2[nH]1)c1ccc2cc3n(c2n1)CCCNC3=O` [Example 49, N-[5-chloro-7-(morpholin-4-ylmethyl)-1H-benzimidazol-2-yl]-6-oxo-7,8,9,10-tetrahydro-6H-pyrido[3′,2′:4,5]pyrrolo[1,2-a][1,4]diazepine-2-carboxamide] was 6.7 nM.
